Assay results published in publication PMC5587574, “Carbonyl reductase 1 catalyzes 20β-reduction of glucocorticoids, modulating receptor activation and metabolic complications of obesity” (Scientific Reports, 2017).

Target: T1, Carbonyl reductase 1 (CBR1) (Homo sapiens, UniProt P16152)
T1 construct: recombinant human CBR1
T1 sequence (P16152 2-277): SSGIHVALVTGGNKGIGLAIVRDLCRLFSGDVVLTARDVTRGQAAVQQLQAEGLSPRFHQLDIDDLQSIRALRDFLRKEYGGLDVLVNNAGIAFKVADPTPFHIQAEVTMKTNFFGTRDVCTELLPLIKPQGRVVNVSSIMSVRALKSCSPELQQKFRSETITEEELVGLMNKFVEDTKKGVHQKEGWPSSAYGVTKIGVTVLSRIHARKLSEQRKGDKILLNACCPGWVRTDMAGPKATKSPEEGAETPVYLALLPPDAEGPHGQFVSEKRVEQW
Assay: conversion by recombinant enzyme, LC-MS/MS
Format: biochemical

In the case of `C[C@]12CCC(=O)C=C1CC[C@@H]1[C@@H]2[C@@H](O)C[C@@]2(C)[C@H]1CC[C@]2(O)C(=O)CO` [F, cortisol], the “conversion by recombinant enzyme, LC-MS/MS” value is reported as 1.2 ± 0.4 ng/mg CBR1 protein per minute.
